According to patent US9035059B2, “Nitrogen-containing condensed heterocyclic compound” (TAISHO PHARMACEUTICAL CO., LTD., priority 2011, dated 2015):

Target: MGAT2 (microsomal fraction of human small intestine) (Homo sapiens (Human), UniProt Q3SYC2)
Test: Test Example 2: Test of MGAT2 inhibitory action (microsomal fraction of human small intestine, 3H-labeled 2-monooleoyl glycerol)
Format: biochemical
Settings: microsomal fraction of human small intestine 5 μg/ml; 4 μM oleoyl-CoA, 1.25 μM 2-monooleoyl glycerol, 0.125 μM 3H-labeled 2-monooleoyl glycerol; room temperature 30 min; read-out: Activity Value [nM] (IC50, concentration at which 50% of the products 3H-labeled dioleoyl glycerol and trioleoyl glycerol was inhibited)
Protocol: An MGAT2 inhibition test for test compounds was conducted in accordance with a partially modified version of the method described in John F. Lockwood et al., Am. J. Physiol. Endocrinol. Metab., 2003, 285, E927.
A 10 mg/mL microsomal fraction of human small intestine (duodenum- and jejunum-derived fraction purchased from Becton Dickinson Japan) was used as an enzyme source.
The test was conducted using a flat-bottom 96-well plate (Corning).
A buffer solution with final concentrations of 5 mM magnesium chloride, 1.25 mg/ml bovine serum albumin and 100 mM Tris-HCl (pH=7.5) was prepared and the microsomal fraction of human small intestine was added thereto to give a final concentration of 5 μg/ml. […] Thereafter, final concentrations of 5 mM magnesium chloride, 1.25 mg/ml bovine serum albumin, 100 mM Tris-HCl (pH=7.5), 4 μM oleoyl-CoA, 1.25 μM 2-monooleoyl glycerol and 0.125 μM ^3H-labeled 2-monooleoyl glycerol (Muromachi Yakuhin Co., Ltd.) were added thereto to give a total volume of 100 μl. This mixture was reacted at room temperature for 30 min.
The reaction was stopped by adding an equal amount of isopropanol to the reaction mixture. The substrate contained in the reaction mixture (^3H-labeled 2-monooleoyl glycerol) and the reaction products (^3H-labeled dioleoyl glycerol and trioleoyl glycerol) were separated by adsorbing them onto an octadecylsilane resin (Wako gel 50C18) (Wako Pure Chemical Industries, Ltd.), removing the substrate by use of 80% isopropanol, and then eluting the reaction products with 100% isopropanol. The amounts of the reaction products were measured with MicroBeta (PerkinElmer Japan).

Chain of MGAT2 (microsomal fraction of human small intestine) (Q3SYC2 whole entry): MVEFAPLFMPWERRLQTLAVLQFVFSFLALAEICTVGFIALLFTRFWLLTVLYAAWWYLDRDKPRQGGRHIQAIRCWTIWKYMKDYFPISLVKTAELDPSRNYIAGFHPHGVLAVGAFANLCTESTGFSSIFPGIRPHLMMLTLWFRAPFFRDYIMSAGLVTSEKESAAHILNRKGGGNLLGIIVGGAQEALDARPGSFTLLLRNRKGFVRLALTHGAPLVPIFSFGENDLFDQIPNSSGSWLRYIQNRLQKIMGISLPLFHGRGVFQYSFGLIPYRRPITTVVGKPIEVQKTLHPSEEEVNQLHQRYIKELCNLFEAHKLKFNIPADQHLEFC

IC50 | Structure (SMILES)
198 nM | CC(C)(C)n1cc(CN2CCc3cc(S(=O)(=O)Nc4ccc(OCCC5CCOCC5)cc4F)ccc3C2)cn1 [Working Example 2-10]
164 nM | CC(C)(C)c1cc(CCN2CCc3cc(S(=O)(=O)Nc4ccc(CCCC5CCCC5)cc4F)ccc3C2)ccn1 [Working Example 6-90]
142 nM | O=S(=O)(Nc1ccc(CCCC2CCCC2)cc1F)c1ccc2c(c1)CCN(Cc1cnn(C3CCC3)c1)C2 [Working Example 2-9]
131 nM | CC(c1cnc(C(F)(F)F)nc1)N1CCc2cc(S(=O)(=O)Nc3ccc(CCCC4CCCC4)cc3F)ccc2C1 (single isomer, unassigned) [24-9]
92 nM | CC(C)(C)n1cc(CN2CCc3cc(S(=O)(=O)Nc4ccc(CCCC5CCCC5)cc4F)ccc3C2)cn1 [Working Example 2-4]
35 nM | CC(C)(C)c1ccc(CCN2CCc3cc(S(=O)(=O)Nc4ccc(OCCCS(=O)(=O)c5ccccc5)cc4F)ccc3C2)cc1 [Working Example 8-6]
200 nM | CC(C)(C)c1ccc(CC2(N3CCc4cc(S(=O)(=O)Nc5ccc(CCCC6CCCC6)cc5F)ccc4C3)CC2)cc1 [25-1, 2-[1-(4-tert-Butylbenzyl)cyclopropyl]-N-[4-(3-cyclopentylpropyl)-2-fluorophenyl]-1,2,3,4-tetrahydroisoquinoline-6-sulfonamide]
118 nM | Cc1nc(-c2ccccc2)sc1CN1CCc2cc(S(=O)(=O)Nc3ccc(CCCC4CCCC4)cc3F)ccc2C1 [Working Example 7-65]
57 nM | Cc1nn(-c2ccccc2)c(C)c1CN1CCc2cc(S(=O)(=O)Nc3ccc(CCCC4CCCC4)cc3F)ccc2C1 [Working Example 7-71]
100 nM | CC(c1cnc(C(F)(F)F)nc1)N1CCc2cc(S(=O)(=O)Nc3ccc(CCCC4CCCC4)cc3F)ccc2C1 (single isomer, unassigned) [24-10]
180 nM | CC(C)n1cc(CN2CCc3cc(S(=O)(=O)Nc4ccc(CCCC5CCCC5)cc4F)ccc3C2)cn1 [Working Example 2-5]
13 nM | CC(c1ccnc(C(C)(C)C)c1)N1CCc2cc(S(=O)(=O)Nc3ccc(CCCC4CCCC4)cc3F)ccc2C1 (stereo not drawn) [23-3]
60 nM | CC(C)(C)c1ccc(C2(N3CCc4cc(S(=O)(=O)Nc5ccc(CCCC6CCCC6)cc5F)ccc4C3)CC2)cn1 [25-2]
148 nM | CC(C)(C)c1ccc(CCN2CCc3cc(S(=O)(=O)Nc4ccc(OCCC5CCOC5)cc4F)ccc3C2)cc1 (stereo not drawn) [Working Example 8-10]
169 nM | CC(C)(C)c1ccc(CCN2CCc3cc(S(=O)(=O)Nc4ccc(OCC[C@H]5CCOC[C@H]5F)cc4F)ccc3C2)cc1 [Working Example 8-11]
248 nM | O=S(=O)(Nc1ccc(CCCC2CCCC2)cc1F)c1ccc2c(c1)CCN(Cc1ccc(OCC(F)(F)F)nc1)C2 [Working Example 6-84]
66 nM | Cc1ccc(-n2nc(C)c(CN3CCc4cc(S(=O)(=O)Nc5ccc(CCCC6CCCC6)cc5F)ccc4C3)c2C)cc1 [Working Example 7-80]

Structure (SMILES) | IC50
C[C@H](c1ccc(C(C)(C)C)nc1)N1CCc2cc(S(=O)(=O)Nc3ccc(CCCC4CCCC4)cc3F)ccc2C1 [24-1, 2-[(1R)-1-(6-tert-Butylpyridin-3-yl)ethyl]-N-[4-(3-cyclopentylpropyl)-2-fluorophenyl]-1,2,3,4-tetrahydroisoquinoline-6-sulfonamide] | 4 nM
